From patent US11725015B2, “Macrocyclic compound and uses thereof” (President and Fellows of Harvard College, priority 2017, dated 2023)

Assays:
[1] = tested on: HCC1806 subcutaneous xenograft; test: Antitumor activity against HCC1806 subcutaneous xenograft model in mice as monotherapy; assay type: in vivo; settings: 0.18 mg/kg intravenously, Q7D×2
Protocol: A human breast cancer cell line HCC1806, which had been cultured in an RPMI-1640 medium containing 10% FBS, and penicillin and streptomycin, was adjusted to a concentration of 1×10^8 cells/mL with PBS to prepare a cell suspension, and the suspension was mixed with Matrigel™ (BD Bioscience, #366237) in a ratio of 1:1 to prepare a cell suspension in a concentration of 5×10^7 cell/mL. The cell suspension was inoculated in a volume of 100 μL into a subcutaneous part of a right flank of nude mice, 5 weeks of ages (CAnN.Cg-Foxnlnu/CrlCrlj, female, Charles River Laboratories Japan, Inc.).
On the basis of the volumes of tumors obtained on the first day of administration, the mice were grouped such that averages of the tumor volumes were substantially equal among the groups. The experiment was conducted on groups each consisting of 6 mice. Test compound was dissolved in saline and intravenously administered at 0.18 mg/kg once a week for 2 weeks (Q7D×2 schedule).

[2] = tested on: human breast cancer cell line MDA-MB231; test: MDA-MB231 growth inhibition assay; assay type: cell-based; settings: 3 days incubation, CellTiter-Glo
Protocol: In this assay, the growth inhibitory activity of test compounds in a human breast cancer cell line MDA-MB231 was measured. MDA-MB231 cells were maintained in Dulbecco's Modified Eagle's medium (Wako Pure Chemical Industries, Ltd., 044-29765) medium containing 10% fetal bovine serum (FBS: Nichirei, 12D168), and penicillin and streptomycin in a 5% CO2 incubator (37° C.). To each well of a 96 well plate (Becton, Dickinson and Company, 353219), 75 μL of MDA-MB231 cell suspension adjusted to a concentration of 4×10^4 cells/mL with the culture medium was added, and the cells were incubated overnight in a 5% CO2 incubator (37° C.). On the next day, 25 μL of Compound (1) or Halichondrin B in three-fold dilution series suspended in the culture medium was added to each well, and the resultant was incubated for 3 days in a 5% CO2 incubator (37° C.). Then, cell viability was determined by CellTiter-Glo® Luminescent Cell Viability Assay (Promega) with EnVision 2103 Multilabel Reader (Perkin-Elmer, Wellesley, Mass.). Value of the wells containing cells without adding the test compounds was defined as 100% and the value of the wells containing no cells was defined as 0%. The concentration of the test compound necessary for inhibiting the cell growth by 50% (i.e., an IC50 value) was calculated, and shown in Table 2.

[3] = molecular target: T1, tubulin protein purified from porcine brain (Sus scrofa, UniProt P02550+P02554); test: Cell-free tubulin polymerization assay; assay type: biochemical; settings: final concentrations 0.625-10 μmol/L
T1 construct: lyophilized tubulin protein purified from porcine brain; purchased Cytoskeleton, Inc. BK011P; host or cells: porcine brain (tissue-purified)
T1 sequence (P02554 whole entry): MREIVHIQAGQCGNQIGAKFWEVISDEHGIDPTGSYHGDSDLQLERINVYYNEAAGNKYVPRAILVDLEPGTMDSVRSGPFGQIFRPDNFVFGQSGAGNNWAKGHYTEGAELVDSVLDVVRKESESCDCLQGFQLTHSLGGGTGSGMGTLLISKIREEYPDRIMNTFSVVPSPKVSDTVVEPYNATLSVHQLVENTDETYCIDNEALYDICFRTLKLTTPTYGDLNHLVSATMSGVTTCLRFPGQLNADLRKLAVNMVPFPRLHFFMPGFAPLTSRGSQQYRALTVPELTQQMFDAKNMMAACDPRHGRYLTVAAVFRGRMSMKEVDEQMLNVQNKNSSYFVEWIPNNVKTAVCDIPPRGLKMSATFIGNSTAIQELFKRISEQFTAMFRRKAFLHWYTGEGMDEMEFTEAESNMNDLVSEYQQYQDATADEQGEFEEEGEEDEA
T1 sequence (P02550 whole entry): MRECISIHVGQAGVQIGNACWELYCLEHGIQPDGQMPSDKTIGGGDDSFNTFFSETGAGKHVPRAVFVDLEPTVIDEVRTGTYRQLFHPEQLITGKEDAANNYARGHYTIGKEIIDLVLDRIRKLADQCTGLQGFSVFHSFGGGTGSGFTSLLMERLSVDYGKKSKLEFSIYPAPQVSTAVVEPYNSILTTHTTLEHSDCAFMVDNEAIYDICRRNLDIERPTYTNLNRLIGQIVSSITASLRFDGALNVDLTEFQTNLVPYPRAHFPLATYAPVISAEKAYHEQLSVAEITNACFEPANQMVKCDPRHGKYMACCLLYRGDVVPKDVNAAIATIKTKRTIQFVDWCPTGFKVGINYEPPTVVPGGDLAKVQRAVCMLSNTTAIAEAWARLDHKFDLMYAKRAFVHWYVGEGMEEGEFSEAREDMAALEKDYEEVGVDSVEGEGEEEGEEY
Protocol: Tubulin Polymerization Assay kit was purchased from Cytoskeleton, Inc. (Cat. #BK011P). The kit contained 1 bottle of lyophilized tubulin protein purified from porcine brain, 3 tubes of lyophilized GTP, 2 bottles of lyophilized assay buffer, and 1 bottle of tubulin glycerol buffer. Assay buffer was prepared by dissolving the contents in 10 mL of deionized and sterilized water. This solution contained 80 mmol/L piperazine-N,N′-bis[2-ethanesulfonic acid] sesquisodium salt, 2.0 mmol/L magnesium chloride, 0.5 mmol/L ethylene glycol-bis(2-amino-ethyl ether) N,N,N′,N′-tetra-acetic acid, pH 6.9, and 10 μmol/L fluorescent reporter. The buffer was stored at −70° C. until use. […]
In the tubulin polymerization assay, reaction mixture was prepared by mixing 820 μL of assay buffer, 17.6 μL of GTP stock solution, and 600 μL of tubulin glycerol buffer. […] Fluorescence emission at 460 nm (excitation wavelength at 360 nm) was measured every 2 minutes for 90 minutes using the SpectraMax® M5e microplate reader (Molecular Devices). Tubulin polymerization was followed by fluorescence enhancement due to the incorporation of a fluorescence reporter into microtubules as polymerization occurred. […]

[4] = tested on: AN3CA (human endometrial cancer) xenograft; test: Antitumor effects in AN3CA endometrial cancer xenograft model in mice as monotherapy; assay type: in vivo; settings: 180 μg/kg intravenously on Day 1 and Day 8
Protocol: A human endometrial cancer cell line AN3CA, which had been cultured in an E-MEM containing 10% FBS, and penicillin-streptomycin, was adjusted to a concentration of 1.4×10^8 cells/mL with Hanks' Balanced Salt Solution to prepare a cell suspension, and the suspension was mixed with Geltrex® (Thermo Fisher Scientific Inc., #A1413202) in a ratio of 1:1 to prepare a cell suspension in a concentration of 7×10^7 cells/mL. The cell suspension was inoculated in a volume of 100 μL into a subcutaneous part of a right flank of nude mice, 6 weeks of ages (CAnN.Cg-Foxnlnu/CrlCrlj, female, Charles River Laboratories Japan Inc.). Twelve days after cell inoculation (Day 1), the shortest diameter and the longest diameter of a tumor in each mouse were measured by using an electronic digital caliper (Digimatic™ caliper, Mitutoyo Corporation), so as to calculate the volume of the tumor in accordance with the following calculation formulae: Tumor volume (mm^3)=Longest diameter (mm)×Shortest diameter (mm)×Shortest diameter (mm)/2 Relative tumor volume (RTV)=Tumor volume (day X)/Tumor volume (the first day)
On the basis of the volumes of tumors obtained on Day 1, the mice were grouped such that averages of the tumor volumes were substantially equal among the groups. The experiment was conducted on groups each consisting of five mice. […]

Structure (SMILES): C=C1C[C@@H]2CC[C@@]34C[C@H]5O[C@H]6[C@@H](O3)[C@H]3O[C@H](CC[C@@H]3O[C@H]6C5O4)CC(=O)O[C@@H]3[C@@H](C)[C@@H]4O[C@@H]5C[C@]6(C[C@@H]7O[C@]8(C[C@H](C)[C@@H]9O[C@H](CN)[C@H](O)C[C@@H]9O8)C[C@H](C)[C@@H]7O6)O[C@@H]5C[C@@H]4O[C@H]3C[C@H]3O[C@@H](CC[C@@H]1O2)C[C@@H](C)C3=C [Compound (1)]
- Tumor Regression (%) [1]: 90%
- IC50 [2]: 0.109 nM
- effect on tubulin polymerization [3]: inhibited tubulin polymerization in a concentration-dependent manner
- antitumor activity [4]: tumor regression
